Test results: US20160145247A1, “Aminomethyl-Biaryl Derivatives Complement Factor D inhibitors and uses thereof” (NOVARTIS AG, priority 2013, published 2016)
pIC50: −log10 of the molar value.

Molecular target: T1, factor D (Homo sapiens, UniProt P00746)
T1 construct: made in house; host or cells: E. coli
Test: factor D inhibition assay of Biological Example 2
Type: biochemical

T1 sequence (P00746 26-253): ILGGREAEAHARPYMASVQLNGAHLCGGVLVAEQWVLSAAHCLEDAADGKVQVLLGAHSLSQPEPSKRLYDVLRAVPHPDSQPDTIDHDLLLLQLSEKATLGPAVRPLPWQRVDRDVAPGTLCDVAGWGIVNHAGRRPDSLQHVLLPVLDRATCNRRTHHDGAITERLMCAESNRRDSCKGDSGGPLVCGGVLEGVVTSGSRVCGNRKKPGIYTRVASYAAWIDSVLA

SMILES	pIC50
CCOCc1cc(COc2ccccc2CC(=O)O)cc(-c2cccc([C@@H](C)N)c2)c1 [Example 120-R]	7.30
NCc1cccc(-c2cc(NC[C@@H]3CCCO3)cc(C(=O)Nc3ccccc3CC(=O)O)n2)c1 [Example 45, (S)-2-(2-(6-(3-(Aminomethyl)phenyl)-4-(((tetrahydrofuran-2-yl)methyl)amino)picolinamido)phenyl)acetic acid]	7.92
N[C@H](CO)c1cccc(-c2cccc(COc3ccccc3CC(=O)O)c2)c1F [Example 142-E]	8.10
Cn1cc(-c2cc(COc3ccccc3CC(=O)O)cc(-c3cccc(CN)c3)c2)cn1 [Example 208-H]	8.40
N[C@H](CO)c1cccc(-c2cc(COc3ccccc3CC(=O)O)cc(NCC3CC3)c2)c1 [Example 128-C, (S)-2-(2-((3′-(1-Amino-2-hydroxyethyl)-5-((cyclopropylmethyl)amino)-[1,1′-biphenyl]-3-yl)methoxy)phenyl)acetic acid]	8.52
Cc1c(COc2ccccc2CC(=O)O)cccc1-c1cccc([C@H](N)CO)c1 [Example 116-L]	4.99
NCc1cccc(-c2cc(Cl)cc(COc3ccccc3CC(=O)O)c2)c1 [Example 102-B, 2-(2-((3′-(Aminomethyl)-5-chloro-[1,1′-biphenyl]-3-yl)methoxy)phenyl)acetic acid]	8.05
Cc1ccc(S(=O)(=O)n2ncc3c(COc4ccccc4CC(=O)O)cc(-c4cccc([C@H](N)CO)c4)cc32)cc1 [Example 186, (S)-2-(2-((6-(3-(1-Amino-2-hydroxyethyl)phenyl)-1-tosyl-1H-indazol-4-yl)methoxy)phenyl)acetic acid]	7.85
C[C@@H](N)c1cccc(-c2cc(COc3ccccc3CC(=O)O)cc(OCC3CCOCC3)c2)c1F [Example 214-D]	7.74
CC(C)Cn1cc(-c2cc(COc3ccccc3CC(=O)O)cc(-c3cccc(CN)c3)c2)cn1 [Example 209-D]	8.40
C[C@@H](N)c1cccc(-c2cc(COc3ccccc3CC(=O)O)cc(COC(F)F)c2)c1F [Example 120-X]	8.40
NCc1cc(F)cc(-c2cc(NCC3CCOCC3)cc(C(=O)Nc3ccccc3CC(=O)O)c2)c1 [Example 79-E]	7.92
CC(O)c1cc(COc2ccccc2CC(=O)O)cc(-c2cccc(CN)c2)c1 (racemic) [Example 106, (±)-2-(2-((3′-(Aminomethyl)-5-(1-hydroxyethyl)-[1,1′-biphenyl]-3-yl)methoxy)phenyl)acetic acid]	8.30
NCc1cc(F)cc(-c2cccc(C(=O)Nc3c(F)cccc3CC(=O)O)c2)c1 [Example 21-D]	6.00
C[C@@H](N)c1cccc(-c2cc(COc3ccccc3CC(=O)O)cc(NC[C@H]3CCCO3)c2)n1 [Example 225-C, 2-(2-((3-(6-((R)-1-aminoethyl)pyridin-2-yl)-5-((((R)-tetrahydrofuran-2-yl)methyl)amino)benzyl)oxy)phenyl)acetic acid]	7.80
NCc1cc(F)cc(-c2cccc(C(=O)Nc3cccc(Cl)c3CC(=O)O)c2)c1 [Example 21-F]	5.51
COc1cc(COc2ccccc2CC(=O)O)cc(-c2cccc([C@@H](C)N)c2F)c1 [Example 214-I]	8.15
COCCNc1cc(C(=O)Nc2ccccc2CC(=O)O)cc(-c2cccc([C@H](N)CO)c2)c1 [Example 83-D, (S)-2-(2-(3′-(1-amino-2-hydroxyethyl)-5-((2-methoxyethyl)amino)-[1,1′-biphenyl]-3-ylcarboxamido)phenyl)acetic acid]	7.66
NCc1cccc(-c2cccc(S(=O)(=O)Nc3ccccc3CC(=O)O)c2)c1 [Example 48, 2-(2-(3′-(Aminomethyl)-[1,1′-biphenyl]-3-ylsulfonamido)phenyl)acetic acid]	5.54
NC(CF)c1cccc(-c2cc(COc3ccccc3CC(=O)O)cc(OC[C@H]3CCCO3)c2)c1F (single isomer, unassigned; (-)) [Example 212-A]	8.22

The remaining molecules from weak to strong by pIC50, led by results:

pIC50	SMILES
4.10	NCc1cccc(-c2cccc(C(=O)Nc3ccccc3CC(N)=O)c2)c1 [Example 3-B, N-(2-(2-Amino-2-oxoethyl)phenyl)-3′-(aminomethyl)-[1,1′-biphenyl]-3-carboxamide]
4.65	COc1c(C(=O)Nc2ccccc2CC(=O)O)cccc1-c1cccc(CN)c1 [Example 91, 2-(2-(3′-(Aminomethyl)-2-methoxy-[1,1′-biphenyl]-3-ylcarboxamido)phenyl)acetic acid]
5.24	NCc1ccc(F)c(-c2ccnc(COc3ccccc3CC(=O)O)c2)c1 [Example 176, 2-(2-((4-(5-(Aminomethyl)-2-fluorophenyl)pyridin-2-yl)methoxy)phenyl)acetic acid]
5.71	NCc1cccc(-c2c[nH]c(C(=O)Nc3ccccc3CC(=O)O)n2)c1 [Example 47, 2-(2-(4-(3-(Aminomethyl)phenyl)-1H-imidazole-2-carboxamido)phenyl)acetic acid]
5.82	NCc1cncc(-c2cc(COc3ccccc3CC(=O)O)cc(OC[C@H]3CCCO3)c2)c1 [Example 138-C]
5.93	N[C@H](CC(F)(F)F)c1cccc(-c2cccc(COc3ccccc3CC(=O)O)c2)c1 [Example 196-H]
5.97	N[C@@H](c1cccc(-c2cccc(COc3ccccc3CC(=O)O)c2)c1)C1CC1 [Example 196-G]
6.64	N[C@H](CF)c1cccc(-c2cc(CNCC(F)(F)F)cc(COc3ccccc3CC(=O)O)c2)c1 [Example 284-B, (S)-2-(2-((3′-(1-amino-2-fluoroethyl)-5-(((2,2,2-trifluoroethyl)amino)methyl)-[1,1′-biphenyl]-3-yl)methoxy)phenyl)acetic acid]
6.72	N[C@H](CO)c1cc(Cl)cc(-c2cccc(COc3ccccc3CC(=O)O)c2)c1 [Example 277-C, (S)-2-(2-((3′-(1-Amino-2-hydroxyethyl)-5′-chloro-[1,1′-biphenyl]-3-yl)methoxy)phenyl)acetic acid]
6.83	CCOC[C@@H](N)c1cccc(-c2cccc(COc3ccccc3CC(=O)O)c2)c1 [Example 173, (S)-2-(2-((3′-(1-Amino-2-ethoxyethyl)-[1,1′-biphenyl]-3-yl)methoxy)phenyl)acetic acid]
6.95	C[C@@H](N)c1cccc(-c2cc(COc3ccccc3CC(=O)O)cc(S(C)(=O)=O)c2)c1F [Example 250-D, (R)-2-(2-((3′-(1-aminoethyl)-2′-fluoro-5-(methylsulfonyl)-[1,1′-biphenyl]-3-yl)methoxy)phenyl)acetic acid]
7.52	N#Cc1cc(COc2ccccc2CC(=O)O)cc(-c2cccc(CN)c2)c1 [Example 113-B, 2-(2-((3′-(Aminomethyl)-5-cyano-[1,1′-biphenyl]-3-yl)methoxy)phenyl)acetic acid]
7.62	C[C@@H](N)c1cccc(-c2cc(CNC3CCOC3)cc(COc3ccccc3CC(=O)O)c2)c1F (stereo partly drawn) [Example 216-AG]
7.68	CCC(=O)Nc1cc(C(=O)Nc2ccccc2CC(=O)O)cc(-c2cc(F)cc(CN)c2)c1 [Example 96-D, 2-(2-(3′-(Aminomethyl)-5′-fluoro-5-propionamido-[1,1′-biphenyl]-3-ylcarboxamido)phenyl)acetic acid]
7.77	Cc1cc(Nc2cc(C(=O)Nc3ccccc3CC(=O)O)cc(-c3cc(F)cc(CN)c3)c2)[nH]n1 [Example 79-H]
7.82	COCc1cc(COc2ccccc2CC(=O)O)cc(-c2cccc([C@@H](C)N)c2F)c1 [Example 120-A]
7.89	COc1cc(COc2ccccc2CC(=O)O)cc(-c2cccc(CN)c2)c1 [Example 134, 2-(2-((3′-(Aminomethyl)-5-methoxy-[1,1′-biphenyl]-3-yl)methoxy)phenyl)acetic acid]
7.89	NCc1cc(F)cc(-c2nc(C(=O)Nc3ccccc3CC(=O)O)c(C3CC3)s2)c1 [Example 35-B, 2-(2-(2-(3-(Aminomethyl)-5-fluorophenyl)-5-cyclopropylthiazole-4-carboxamido)phenyl)acetic acid]
7.89	NCc1cccc(-c2ccnc(COc3ccccc3CC(=O)O)c2)c1 [Example 164, 2-(2-((4-(3-(Aminomethyl)phenyl)pyridin-2-yl)methoxy)phenyl)acetic acid]
7.96	CC(C)Nc1cc(COc2ccccc2CC(=O)O)cc(-c2cccc([C@@H](C)N)c2F)c1 [Example 152, (R)-2-(2-((3′-(1-aminoethyl)-2′-fluoro-5-(isopropylamino)-[1,1′-biphenyl]-3-yl)methoxy)phenyl)acetic acid]
8.00	NCc1cccc(-c2cc(COc3ccccc3CC(=O)O)cc(C3CC3)c2)c1 [Example 103-B, 2-(2-((3′-(Aminomethyl)-5-cyclopropyl-[1,1′-biphenyl]-3-yl)methoxy)phenyl)acetic acid]
8.05	NCc1cccc(-c2cc(N3CCOCC3)cc(C(=O)Nc3ccccc3CC(=O)O)n2)c1 [Example 44, 2-(2-(6-(3-(Aminomethyl)phenyl)-4-morpholinopicolinamido)phenyl)acetic acid]
8.05	CNC(=O)c1cc(COc2cc(C(=O)Nc3ccccc3CC(=O)O)cc(-c3cc(F)cc(CN)c3)c2)ccn1 [Example 71, 2-(2-(3′-(Aminomethyl)-5′-fluoro-5-((2-(methylcarbamoyl)pyridin-4-yl)methoxy)-[1,1′-biphenyl]-3-ylcarboxamido)phenyl)acetic acid]
8.10	CCOc1cc(COc2ccccc2CC(=O)O)cc(-c2cccc([C@H](N)CO)c2)c1 [Example 115-B]
8.30	CC(O)c1cc(COc2ccccc2CC(=O)O)cc(-c2cccc([C@@H](C)N)c2)c1 (stereo partly drawn) [Example 116-F]
8.30	CCc1ccc(CC(=O)O)c(OCc2cccc(-c3cccc(CN)c3)c2)c1 [Example 293, 2-(2-((3′-(aminomethyl)-[1,1′-biphenyl]-3-yl)methoxy)-4-ethylphenyl)acetic acid]
8.40	CC(C)CC(=O)Nc1cc(C(=O)Nc2ccccc2CC(=O)O)cc(-c2cc(F)cc(CN)c2)c1 [Example 98, 2-(2-(3′-(Aminomethyl)-5′-fluoro-5-(3-methylbutanamido)-[1,1′-biphenyl]-3-ylcarboxamido)phenyl)acetic acid]
8.52	NCc1cccc(-c2cc(COc3ccccc3CC(=O)O)cc3c2OCO3)c1 [Example 126-B, 2-(2-((7-(3-(Aminomethyl)phenyl)benzo[d][1,3]dioxol-5-yl)methoxy)phenyl)acetic acid]
